Reference: PubChem BioAssay AID2020 (NMMLSC, 2009)
Activity calls are given as the source filed them.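 How the source made its calls: active means EC50 at or below 30 µM together with a response span of at least a set limit; inactive means the rest.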

Target: Cell division control protein 42 homolog (Homo sapiens) (UniProt P60953)
Test: fluorescent GTP binding blockers of active-mutant Cdc42 – biochemical, pyrazoline analogs, multiplex bead flow cytometry, Ki, SAR follow-up (AID 2020)
Conditions: bead-based flow cytometry, Bodipy-FL-GTP binding

Chain of Cell division control protein 42 homolog (Homo sapiens) (P60953 whole entry, looked up, change not shown): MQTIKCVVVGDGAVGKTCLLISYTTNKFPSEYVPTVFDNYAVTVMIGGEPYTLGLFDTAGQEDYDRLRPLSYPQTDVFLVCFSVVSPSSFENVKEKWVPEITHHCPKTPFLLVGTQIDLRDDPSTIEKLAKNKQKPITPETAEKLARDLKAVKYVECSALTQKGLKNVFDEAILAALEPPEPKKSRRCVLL

COc1ccc(C2CC(c3ccccc3OC)=NN2c2ccc(S(N)(=O)=O)cc2)cc1 (stereo not given)
EC50: 5.52 µM | Ki (measured here: Ki calculated from EC50): 0.85 µM

COc1ccc(C2CC(C)=NN2c2ccc(S(N)(=O)=O)cc2)cc1 (stereo not given)
EC50: > 30 µM (inactive)

COc1ccc(C2=NN(c3ccccc3)C(c3ccc(OC)c(OC)c3C(=O)O)C2)cc1 (stereo not given)
EC50: > 30 µM (inactive)

COc1ccc(C2CC(c3ccccc3)=NN2c2ccc(Cl)c(C(=O)O)c2)cc1OC (stereo not given)
EC50: > 30 µM (inactive)
